Test results: US10280167B2, “Purine derivatives for the treatment of viral infections” (JANSSEN SCIENCES IRELAND UC, priority 2011, dated 2019)
Read-outs that look alike come from different tables or passages of the source.

Columns and labels:
Format in all cases: cell-based
[1] = test system: Huh-7 luc/neo HCV replicon cells with conditioned media from PBMC; experiment: Interferon production in human PBMC (PBMC-HUH7_EC50), HCV replicon readout with conditioned media; details: Homo sapiens, Huh-7; concentration applied to PBMCs giving 50% reduction of replicon luciferase activity
Description: Measurement of Interferon Production in Human PBMC (PBMC-HUH7_EC50)
Activation of human TLR7 results in robust production of interferon by plasmacytoid dendritic cells present in human blood. The potential of compounds to induce interferon was evaluated by looking at the antiviral activity in the HCV replicon system upon incubation with conditioned media from peripheral blood mononuclear cells (PBMC). The HCV replicon assay is based on a bicistronic expression construct, as described by Lohmann et al. (Science (1999) 285: 110-113; Journal of Virology (2003) 77: 3007-15 3019) with modifications described by Krieger et al. (Journal of Virology (2001) 75: 4614-4624). The assay utilized the stably transfected cell line Huh-7 luc/neo harboring an RNA encoding a bicistronic expression construct comprising the wild type NS3-NS5B regions of HCV type 1b translated from an Internal Ribosome Entry Site (IRES) from encephalomyocarditis virus (EMCV), preceded by a reporter gene (Firefly-luciferase) and a selectable marker gene (neoR, neomycine phosphotransferase). The construct is flanked by 5′ and 3′ NTRs (non-translated regions) from HCV type 1b. Continued culture of the replicon cells in the presence of G418 (neoR) is dependent on the replication of the HCV RNA. The stably transfected replicon cells that replicate HCV RNA autonomously and to high levels, encoding inter alia luciferase, were used for profiling of the conditioned cell culture media. Briefly, PBMCs were prepared from buffy coats of at least two donors using a standard Ficoll centrifugation protocol. Isolated PBMCs were resuspended in RPMI medium supplemented with 10% human AB serum and 2×10^5 cells/well were dispensed into 384-well plates containing compounds (70 μL total volume). After overnight incubation, […] was transferred to 384-well plates containing 2.2×10^3 replicon cells/well in 30 μL (plated the day before). Following 24 hours of incubation, replication was measured by assaying luciferase activity using 40 μL/well Steady Lite Plus substrate (Perkin Elmer) and measured with ViewLux ultraHTS microplate imager (Perkin Elmer). The inhibitory activity of each compound on the Huh7-luc/neo cells were reported as EC50 values, defined as the compound concentration applied to the PBMCs resulting in a 50% reduction of luciferase activity which in turn indicates the degree of replication of the replicon RNA on transfer of a defined amount of PBMC culture medium. Recombinant interferon α-2a (Roferon-A) was used as a standard control compound.

[2] = test system: HEK-ISRE-luc cells with conditioned media from PBMC; experiment: Interferon production in human PBMC (PBMC HEK-ISRE-luc LEC); details: Homo sapiens, PBMC, read-out: PBMC HEK-ISRE-luc (LEC)
Description: Measurement of Interferon Production in Human PBMC (PBMC HEK-ISRE-Luc LEC)
Activation of human TLR7 results in robust production of interferon by plasmacytoid dendritic cells present in human blood. The potential of compounds to induce interferon was evaluated by determination of interferon in the conditioned media from peripheral blood mononuclear cells (PBMC). The presence of interferon in the samples was determined, using an interferon reporter cell line stably expressing an interferon-stimulated responsive elements (ISRE)-luc reporter construct. The ISRE element with sequence GAAACTGAAACT (SEQ ID NO: 1) is highly responsive to the STAT1-STAT2-IRF9 transcription factor, which becomes activated upon binding of IFN-I to the IFN receptor. Briefly, PBMCs were prepared from buffy coats of at least two donors using a standard Ficoll centrifugation protocol. Isolated PBMCs were resuspended in RPMI medium supplemented with 10% human AB serum and 2×10^5 cells/well were dispensed into 384-well plates containing compounds (70 μL total volume). After overnight incubation of the PBMCs with the compounds, 10 μL of supernatant was transferred to 384-well plates containing 5×10^3 HEK-ISRE-luc cells/well in 30 μL (plated the day before). Following 24 hours of incubation, activation of the ISRE elements was measured by assaying luciferase activity using 40 μL/well Steady Lite Plus substrate (Perkin Elmer) and measured with ViewLux ultraHTS microplate imager (Perkin Elmer). The stimulating activity of each compound on the HEK-ISRE-luc cells was reported as LEC. The LEC in turn indicates the degree of ISRE activation on transfer of a defined amount of PBMC culture medium.
Recombinant interferon alfa-2a (Roferon-A) was used as a standard control compound.

human TLR7 = human TLR7 (Homo sapiens (Human), UniProt Q9NYK1); experiment: Reporter assay for TLR7 activity, HEK293 transiently transfected with wild type TLR7 and NFκB-luc; details: lowest effective concentration; 48 h transfection
Chain of human TLR7 (Q9NYK1 27-1049): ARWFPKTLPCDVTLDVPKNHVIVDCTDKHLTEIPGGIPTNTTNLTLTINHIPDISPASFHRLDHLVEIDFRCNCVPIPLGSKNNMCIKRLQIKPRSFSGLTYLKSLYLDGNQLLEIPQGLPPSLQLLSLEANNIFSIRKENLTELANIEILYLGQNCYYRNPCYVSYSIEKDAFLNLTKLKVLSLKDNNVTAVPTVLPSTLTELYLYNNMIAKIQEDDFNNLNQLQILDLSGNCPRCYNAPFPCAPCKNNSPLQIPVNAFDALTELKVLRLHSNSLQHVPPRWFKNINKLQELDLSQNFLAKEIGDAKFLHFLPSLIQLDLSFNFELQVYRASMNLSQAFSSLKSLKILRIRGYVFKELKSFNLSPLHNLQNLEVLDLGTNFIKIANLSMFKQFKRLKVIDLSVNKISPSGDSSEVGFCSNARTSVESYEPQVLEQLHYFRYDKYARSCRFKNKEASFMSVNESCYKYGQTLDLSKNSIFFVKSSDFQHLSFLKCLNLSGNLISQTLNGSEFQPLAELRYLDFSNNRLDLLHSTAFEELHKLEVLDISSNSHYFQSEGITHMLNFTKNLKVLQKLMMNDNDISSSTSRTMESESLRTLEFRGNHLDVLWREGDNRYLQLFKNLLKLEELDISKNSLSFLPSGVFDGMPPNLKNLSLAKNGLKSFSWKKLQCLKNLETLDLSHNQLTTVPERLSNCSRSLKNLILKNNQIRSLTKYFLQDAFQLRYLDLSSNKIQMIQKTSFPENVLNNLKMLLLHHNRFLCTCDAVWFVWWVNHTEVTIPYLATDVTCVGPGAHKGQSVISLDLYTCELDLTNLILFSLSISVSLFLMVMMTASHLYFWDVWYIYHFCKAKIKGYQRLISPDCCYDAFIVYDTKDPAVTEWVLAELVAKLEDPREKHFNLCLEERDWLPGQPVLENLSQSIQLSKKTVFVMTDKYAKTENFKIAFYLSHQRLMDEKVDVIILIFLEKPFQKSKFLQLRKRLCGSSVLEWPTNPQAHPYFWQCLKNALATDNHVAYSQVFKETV

human TLR7 dIRR2 mutant = experiment: Reporter assay for TLR7 activity, HEK293 transfected with mutant TLR7 (dIRR2 deletion) and NFκB-luc; details: lowest effective concentration; 48 h transfection

Cc1nc(-c2nc(N)c3[nH]c(=O)n(Cc4ccccc4)c3n2)[nH]c1C [Compound 7]
EC50 [1]: 640 nM
minimal effective concentration ([2]; lowest effective concentration): 0.88 µM
TLR7-wt_LEC 48 h (human TLR7): >25 µM
TLR7-dIRR2_LEC 48 h (human TLR7 dIRR2 mutant): 1.46 µM

Cc1c[nH]c(-c2nc(N)c3[nH]c(=O)n(Cc4ccccc4)c3n2)n1 [Compound 8]
EC50 [1]: 170 nM
minimal effective concentration ([2]; lowest effective concentration): 0.25 µM
TLR7-wt_LEC 48 h (human TLR7): 5.91 µM
TLR7-dIRR2_LEC 48 h (human TLR7 dIRR2 mutant): 0.17 µM

Cc1ccc(Cn2c(=O)[nH]c3c(N)nc(-c4ncc[nH]4)nc32)cn1 [Compound 9]
EC50 [1]: 50 nM
minimal effective concentration ([2]; lowest effective concentration): 0.03 µM
TLR7-wt_LEC 48 h (human TLR7): 0.88 µM
TLR7-dIRR2_LEC 48 h (human TLR7 dIRR2 mutant): 0.07 µM

COCCn1ccnc1-c1nc(N)c2[nH]c(=O)n(Cc3ccccc3)c2n1 [Compound 11]
EC50 [1]: 330 nM
minimal effective concentration ([2]; lowest effective concentration): 0.32 µM
TLR7-wt_LEC 48 h (human TLR7): 5.36 µM
TLR7-dIRR2_LEC 48 h (human TLR7 dIRR2 mutant): 0.19 µM

Cn1ccnc1-c1nc(N)c2[nH]c(=O)n(Cc3ccccc3)c2n1 [Compound 12]
EC50 [1]: 590 nM
minimal effective concentration ([2]; lowest effective concentration): 0.34 µM
TLR7-wt_LEC 48 h (human TLR7): 8.08 µM
TLR7-dIRR2_LEC 48 h (human TLR7 dIRR2 mutant): 0.3 µM

Nc1nc(-c2ccn[nH]2)nc2c1[nH]c(=O)n2Cc1ccccc1 [Compound 23]
EC50 [1]: 130 nM
minimal effective concentration ([2]; lowest effective concentration): 0.12 µM
TLR7-wt_LEC 48 h (human TLR7): 0.23 µM
TLR7-dIRR2_LEC 48 h (human TLR7 dIRR2 mutant): 0.007 µM

Nc1nc(-c2ncc[nH]2)nc2c1[nH]c(=O)n2Cc1ccc2c(c1)CNCC2 [Compound 24]
EC50 [1]: 46 nM
minimal effective concentration ([2]; lowest effective concentration): 0.03 µM
TLR7-wt_LEC 48 h (human TLR7): 1.81 µM
TLR7-dIRR2_LEC 48 h (human TLR7 dIRR2 mutant): 0.11 µM

Nc1nc(-c2ncc[nH]2)nc2c1[nH]c(=O)n2Cc1cccc(CN2CCCC2)c1 [Compound 25]
EC50 [1]: 6 nM
minimal effective concentration ([2]; lowest effective concentration): 0.007 µM
TLR7-wt_LEC 48 h (human TLR7): 2.46 µM
TLR7-dIRR2_LEC 48 h (human TLR7 dIRR2 mutant): 0.39 µM

Cc1ccc(Cn2c(=O)[nH]c3c(N)nc(-c4nc(C5CC5)c[nH]4)nc32)cn1 [Compound 26]
EC50 [1]: 5 nM
minimal effective concentration ([2]; lowest effective concentration): 0.006 µM
TLR7-wt_LEC 48 h (human TLR7): 2.42 µM
TLR7-dIRR2_LEC 48 h (human TLR7 dIRR2 mutant): 0.21 µM

Nc1nc(-c2nccn2CCO)nc2c1[nH]c(=O)n2Cc1ccccc1 [Compound 27]
EC50 [1]: 800 nM
minimal effective concentration ([2]; lowest effective concentration): 0.43 µM
TLR7-wt_LEC 48 h (human TLR7): 6.03 µM
TLR7-dIRR2_LEC 48 h (human TLR7 dIRR2 mutant): 0.63 µM

CC(C)(C)c1c[nH]c(-c2nc(N)c3[nH]c(=O)n(Cc4ccccc4)c3n2)n1 [Compound 28]
EC50 [1]: > 23800 nM
minimal effective concentration ([2]; lowest effective concentration): > 23.8 µM
TLR7-wt_LEC 48 h (human TLR7): >25 µM
TLR7-dIRR2_LEC 48 h (human TLR7 dIRR2 mutant): 8.77 µM

CC(C)c1c[nH]c(-c2nc(N)c3[nH]c(=O)n(Cc4ccccc4)c3n2)n1 [Compound 29]
EC50 [1]: 1660 nM
minimal effective concentration ([2]; lowest effective concentration): 0.82 µM
TLR7-dIRR2_LEC 48 h (human TLR7 dIRR2 mutant): 1.58 µM

CCc1c[nH]c(-c2nc(N)c3[nH]c(=O)n(Cc4ccccc4)c3n2)n1 [Compound 30]
EC50 [1]: 170 nM
minimal effective concentration ([2]; lowest effective concentration): 0.12 µM
TLR7-wt_LEC 48 h (human TLR7): 12.71 µM
TLR7-dIRR2_LEC 48 h (human TLR7 dIRR2 mutant): 0.14 µM

COC(=O)c1cccc(Cn2c(=O)[nH]c3c(N)nc(-n4cccn4)nc32)c1 [Compound 37]
minimal effective concentration ([2]; lowest effective concentration): 0.01 µM
TLR7-wt_LEC 48 h (human TLR7): 0.05 µM

Nc1nc(-n2cccn2)nc2c1[nH]c(=O)n2Cc1cccc(C(=O)O)c1 [Compound 38]
minimal effective concentration ([2]; lowest effective concentration): > 25 µM
TLR7-wt_LEC 48 h (human TLR7): 0.38 µM

Nc1nc(-n2cccn2)nc2c1[nH]c(=O)n2Cc1cccc(CO)c1 [Compound 39]
minimal effective concentration ([2]; lowest effective concentration): 0.01 µM
TLR7-wt_LEC 48 h (human TLR7): 0.05 µM

CCOP(=O)(Cc1cccc(Cn2c(=O)[nH]c3c(N)nc(-n4cccn4)nc32)c1)OCC [Compound 40]
minimal effective concentration [2]: 0.01 µM
TLR7-wt_LEC 48 h (human TLR7): 0.03 µM

Cl.Nc1nc(-n2cccn2)nc2c1[nH]c(=O)n2Cc1cccc(CP(=O)(O)O)c1 [Compound 41]
minimal effective concentration ([2]; lowest effective concentration): 0.4 µM
TLR7-wt_LEC 48 h (human TLR7): 0.03 µM

Nc1nc(-c2ccn[nH]2)nc2c1[nH]c(=O)n2Cc1cn2ccccc2n1 [Compound 43]
minimal effective concentration ([2]; lowest effective concentration): 0.15 µM
TLR7-wt_LEC 48 h (human TLR7): 0.50 µM

COC(=O)c1cccc(Cn2c(=O)[nH]c3c(N)nc(-c4ccn[nH]4)nc32)c1 [Compound 44]
minimal effective concentration ([2]; lowest effective concentration): 0.04 µM
TLR7-wt_LEC 48 h (human TLR7): 0.10 µM

Nc1nc(-c2ccn[nH]2)nc2c1[nH]c(=O)n2Cc1cccc(C(=O)O)c1 [Compound 45]
minimal effective concentration ([2]; lowest effective concentration): 1.37 µM
TLR7-wt_LEC 48 h (human TLR7): 0.58 µM

Nc1nc(-c2ccn[nH]2)nc2c1[nH]c(=O)n2Cc1cccc(CO)c1 [Compound 46]
minimal effective concentration ([2]; lowest effective concentration): 0.03 µM
TLR7-wt_LEC 48 h (human TLR7): 0.21 µM

CCOP(=O)(CCCn1ccnc1-c1nc(N)c2[nH]c(=O)n(Cc3ccccc3)c2n1)OCC [Compound 47]
minimal effective concentration [2]: 1.64 µM
TLR7-wt_LEC 48 h (human TLR7): 14.12 µM

Nc1nc(-n2cccn2)nc2c1[nH]c(=O)n2Cc1cn2ccccc2n1 [Compound 48]
minimal effective concentration ([2]; lowest effective concentration): 0.01 µM
TLR7-wt_LEC 48 h (human TLR7): 0.01 µM

COc1ccnc(Cn2c(=O)[nH]c3c(N)nc(-n4cccn4)nc32)c1OC [Compound 49]
minimal effective concentration ([2]; lowest effective concentration): 0.06 µM
TLR7-wt_LEC 48 h (human TLR7): 0.31 µM

Cc1ccc(Cn2c(=O)[nH]c3c(N)nc(-n4cccn4)nc32)cn1 [Compound 50]
minimal effective concentration ([2]; lowest effective concentration): 0.01 µM
TLR7-wt_LEC 48 h (human TLR7): 0.03 µM

Nc1nc(-c2cc(C3CC3)n[nH]2)nc2c1[nH]c(=O)n2Cc1ccccc1 [Compound 51]
minimal effective concentration ([2]; lowest effective concentration): 0.17 µM
TLR7-wt_LEC 48 h (human TLR7): 0.16 µM

Nc1nc(-c2ccn(CCO)n2)nc2c1[nH]c(=O)n2Cc1ccccc1 [Compound 52]
minimal effective concentration ([2]; lowest effective concentration): 0.42 µM
TLR7-wt_LEC 48 h (human TLR7): 4.42 µM
TLR7-dIRR2_LEC 48 h (human TLR7 dIRR2 mutant): 0.41 µM

Cc1cn[nH]c1-c1nc(N)c2[nH]c(=O)n(Cc3ccccc3)c2n1 [Compound 53]
EC50 [1]: 760 nM
TLR7-wt_LEC 48 h (human TLR7): 3.17 µM
TLR7-dIRR2_LEC 48 h (human TLR7 dIRR2 mutant): 0.36 µM

Nc1nc(-c2ncc[nH]2)nc2c1[nH]c(=O)n2Cc1cccc(C(=O)N2CCCC2)c1 [Compound 55]
EC50 [1]: 1270 nM
minimal effective concentration ([2]; lowest effective concentration): 1.16 µM
TLR7-dIRR2_LEC 48 h (human TLR7 dIRR2 mutant): 0.06 µM
